Measurements: patent US20100092443A1, “NOVEL COMBINATIONS OF NITROGENATED HETEROCYCLIC ANTIBACTERIAL COMPOUNDS WITH OTHER ANTIBACTERIAL COMPOUNDS AND THE USE OF SAME AS DRUGS” (priority 2008, published 2010)
Counter-ions that a name gives are not always drawn. Like-named read-outs stand apart in the source and are kept apart here.

Columns and labels:
P. aeruginosa (391 HT2) [1] = test: MICs determined on microplates; assay type: cell-based, Pseudomonas aeruginosa; settings: sensitive strain P. aeruginosa 391 HT2
Experimental: (§1) The minimum inhibitory concentrations (MICs) of the products to be tested (products alone and combinations) are determined in advance. • For each concentration of product to be tested as well as the control stock, an Erlenmeyer flask containing 18.5 ml Muller-Hinton medium (Ca^++) is prepared. • From an overnight culture in broth or a bacterial suspension of OD (optical density)=1, a 1/100 dilution is prepared. • The sample is cultured with agitation for 2 h at 37° C. • OD is measured: if >0.5, the sample is diluted to 1/10. • Each Erlenmeyer flask is inoculated with 1 ml of the agitated culture or its dilution. The initial inoculum should be 1×10^6 CFU/ml. • The various antibiotic solutions are added at a volume of 0.5 ml and 0.5 ml of medium in the control Erlenmeyer flask. • With a volume of 0.1 ml, the control Erlenmeyer flask is numbered=TO. • The flask is incubated at 37° C. with agitation. • At each sampling point (2, 4, 6, 24, 48 hours), a volume of 0.1 ml is sampled from each Erlenmeyer flask and numbered. • Plates for all the numbered samples are incubated (24 h-48 h) at 37° C.
Bactericidal activity was evaluated on a sensitive strain of P. aeruginosa (391 HT2)

P. aeruginosa (391 HT2) [2] = test: MICs in a volume of 10 ml, bactericidal conditions (exponential bacterial growth); assay type: cell-based, Pseudomonas aeruginosa
Experimental: as §1
For the bactericidal tests, MICs are determined in a volume of 10 ml-bactericidal conditions (exponential bacterial growth): […]

E. aerogenes = test: MIC, dilutions in liquid medium, alone and combined with NXL105; assay type: cell-based; settings: E. aerogenes EAR2, Case-R + FEP-R

| Structure (SMILES) | MIC determined on microplates (P. aeruginosa (391 HT2) [1]) | MIC in a volume of 10 ml, bactericidal conditions (P. aeruginosa (391 HT2) [2]) | MIC (E. aerogenes) | MIC (P. aeruginosa (391 HT2) [1]; Pseudomonas aeruginosa) | MIC (P. aeruginosa (391 HT2) [2]; Pseudomonas aeruginosa) | MIC (E. aerogenes; Klebsiella aerogenes, 24 h, read-out: MIC) |
| --- | --- | --- | --- | --- | --- | --- |
| Cn1ncc2c1[C@@H](CN)N1C[C@H]2N(OS(=O)(=O)O)C1=O (relative stereo) [NXL105, Sodium and Trifluoroacetate Salts of trans 8-(aminomethyl)-4,8-dihydro-1-methyl-5-(sulphooxy)-4,7-methano-7H-pyrazolo[3,4-e][1,3]diazepin-6(5H)-one] | 0.25 µg/mL | 0.25 µg/mL | >32 µg/mL | – | – | – |
| CC(C)(O/N=C(\C(=O)N[C@@H]1C(=O)N2C(C(=O)[O-])=C(C[n+]3ccccc3)CS[C@H]12)c1csc(N)n1)C(=O)O [Ceftazidime] | – | – | – | 2 µg/mL | 8 µg/mL | > 32 µg/mL |
